We go through 2 substances from publication PMC3836994, “Killer Bee Molecules: Antimicrobial Peptides as Effector Molecules to Target Sporogonic Stages of Plasmodium” (PLoS Pathogens, 2013).

“And” between values parts separate entries of the source, which are not always exact repeats. Equal entries are not always repeated. “Also recorded” adds a separate entry of the source. A value given as a limit tells only on which side of the number the result lay.

Data set [1] concerns P. falciparum. The experiment in a line: Cultured P. falciparum gametocytes membrane-fed to An. gambiae (oocyst prevalence and intensity). Type of data set: in vivo, Plasmodium falciparum. The conditions noted are these: 50 µM; for Oocyst intensity (mean number of oocysts per gut, range in parentheses), peptide / Oocyst prevalence (oocyst positive mosquitoes), peptide: cultured gametocytes, An. gambiae. As to the method: P. falciparum NF54 gametocytes were produced through large-scale automated culture at the Pasteur Institute, Paris, [69]. Gametocytes were grown in 10 ml RPMI 1640 medium (Invitrogen), supplemented with 25 mM HEPES and L-glutamine, 10% heat-inactivated human serum and hypoxanthine (20 mg/L) under a constant gas supply (5% CO2, 1% O2, 94% N2). Fresh red blood cells (RBCs) were added to obtain a 7% haematocrit. Fourteen days after initiating the culture, gametocyte maturity was assessed on thin Giemsa-stained blood smears, and male gametocyte maturity verified by exflagellation tests. Gametocyte cultures were centrifuged for 5 min at 1500 rpm and the ∼500–600 µl pellet resuspended in fresh RBCs and AB human serum to give a final haematocrit of 40%.
Blood containing mature gametocytes (475 µl) was added to 25 µl of the test AMP (50 µM final concentration). Peptides were replaced by 25 µl of sterile deionized water for each control. The blood/parasite/peptide mixture was placed in a Hemotek membrane feeder, previously warmed to 37°C. For each feed, 70 to 100 nulliparous female An. gambiae mosquitoes were left to feed in the dark for 15 min and only fully engorged females were transferred to small cages and provided with 10% sucrose containing 0.05% PABA. After 8 days, 30 midguts were dissected and stained with bromo fluorescein for the detection of oocysts.

The subject of a further data set is P. berghei ookinetes. Description: P. berghei ookinete viability in vitro (erythrosin B). Type of data set: cell-based, Plasmodium berghei. The conditions noted are these: 30 min; for Reduction in ookinete viability: versus control. How it is done:
Our primary aim was to target parasites in mosquitoes before they cross the midgut wall, therefore AMPs were first assessed for their ability to kill ookinetes in vitro. […] Ookinete cultures of P. berghei were established from gametocytaemic blood as previously described. Parasites were enriched using cold 0.17M ammonium chloride after 18 h of culture and washed thoroughly with PBS (phosphate buffered saline). Parasites were seeded in triplicate wells of a 96-well microtitre plate at a density of 1×10^5/ml in a volume of 47.5 µl Schneider's insect medium (Invitrogen) with 2.5 µl of the test AMP (final concentration of 50 µM). Ookinetes were incubated for 30 min in conjunction with triplicate control wells containing medium with 2.5 µl of water instead of AMP. A sub-sample of parasites was then added to an equal volume of 5% erythrosin B to assess viability (150 ookinetes in total, taken from 3 wells). Each of the 33 AMPs was screened in this way and assays were performed 3 times. AMPs displaying a high degree of toxicity (>90% of ookinetes displaying erythrosin B staining) underwent further ookinete assays using a concentration of 100 µM AMP. To assess synergistic effects, combinations of two peptides were also tested at a concentration of 25 µM per AMP, in the assay described above.

For data set [2], the system named is An. gambiae (Mali strain). The experiment in a line: Mosquito longevity after blood feeds containing AMP. The class given is in vivo, Anopheles gambiae. The note with it: 50 µM AMP in blood on days 0 and 7; extended to 30 days.
Data set [3] has as its system An. gambiae (Mali strain). The experiment in a line: Mosquito oviposition after blood feed containing AMP. The class given is in vivo, Anopheles gambiae. The conditions noted are these: for Significance of effect on oviposition: 50 µM AMP, one-way ANOVA, peptide vs control; for Mean no. of eggs laid per mosquito, peptide: after first feed with 50 µM AMP, eggs laid over two nights, averaged per surviving mosquito, 3 or 4 replicates. As to the method:
(§1) Female An. gambiae (Mali strain, 3–5 days old) were used to establish the effects of AMPs on mosquito longevity and fecundity in the absence of confounding factors introduced with parasite infection. Two hundred 3–6 day old females were fed on human O+ whole blood supplemented with 50 µM AMP (or water control, 1 ml total volume) via feeding chambers of a Hemotek membrane feeding system. Fully engorged mosquitoes were randomly moved into four separate cages, each containing 25 mosquitoes, to facilitate monitoring. Mortality rates were recorded daily for a 10-day period, and oviposition sites were provided on the second and third night post-feeding. A second blood feed containing the same AMP was administered 7 days later to mimic the likelihood that mosquitoes would feed at least twice in the field during the development of sporogonic stages of the malaria parasite. Oviposition sites were again provided to assess fecundity through the number of eggs laid as an average per surviving mosquito. Assays for each AMP were repeated in triplicate on separate generations of mosquitoes. Due to egg retention under experimental conditions, egg production is best measured by dissecting mosquitoes that have not been provided with an oviposition site. However, this is not a feasible method of determining fecundity when longevity is also being measured.

Data set [4] relates to An. gambiae (Mali strain). Description: Mosquito longevity after blood feeds containing AMP. The note with it: for Significance of effect on longevity over 10 days: 50 µM AMP, Kaplan-Meier, Wilcoxon, peptide vs control; for Percent alive, peptide: over 10 days, 50 µM AMP in human blood, feeds on days 0 and 7, 3 or 4 replicates. Type of data set: in vivo, Anopheles gambiae. As to the method: as §1

In data set [5] the test system is P. falciparum. The experiment in a line: Field P. falciparum from gametocyte carriers membrane-fed to An. gambiae (Mali). Type of data set: in vivo, Plasmodium falciparum. The note with it: Replicate 1, 50 µM. From the text: Nyaganabougou, a village approximately 60 km south-west of the Malian capital, Bamako, was used as a site for the source of donors of malaria-infected blood. Due to its proximity to the river Niger, which provides perennial mosquito breeding sites, Nyaganabougou has high numbers of infected individuals and an extended transmission season. Mosquitoes used to establish the An. gambiae Mali colony used for this study were originally collected in the village of Kenieroba (a distance of 15 km from Nyaganabougou). Potential male and female gametocyte carriers between the ages of 6–10 were screened by thick smear and parasite species and density determined by local staff, led by Saibou Doumbia.
Gametocyte carriers were taken to the Malaria Research and Training Centre at the University of Bamako for blood donation. Approximately 4 ml of blood was extracted from carriers and immediately divided into 3 Hemotek membrane feeders for testing 2 separate AMPs and one control for each carrier. Peptides were added to 950 µl of gametocytaemic blood for a final concentration of 50 µM. All parasite-positive individuals were subsequently treated appropriately for parasites and associated symptoms, as determined by, and carried out by, local health workers in Nyaganabougou.
Approximately 120 adult female An. gambiae (Mali, 4–7 days old) were starved overnight, and allowed to feed on the gametocytaemic blood/AMP mix for 30 min. Engorged females were maintained on 10% glucose with 0.05% PABA for 8 days before dissection. No oviposition sites were provided so that fecundity could be measured by determining retained eggs. Mosquito wing length, numbers of retained eggs and oocysts were recorded, and triplicate peptide experiments were carried out on different mosquito cohorts, using blood from different donors. Where possible, a minimum of 50 mosquitoes were dissected for each condition.

A further data set concerns P. berghei. The experiment in a line: P. berghei infections in Anopheles stephensi (oocyst prevalence and intensity). The class given is in vivo, Plasmodium berghei. The note with it: for Prevalence (proportion of infected mosquitoes), peptide: 50 µM peptide in gametocytaemic mouse blood fed to An. stephensi; for Intensity (mean number of oocysts, range in parentheses), peptide: 50 µM peptide, An. stephensi. How it is done:
To assess the effects of AMPs on parasites in vivo, mouse blood containing P. berghei gametocytes was obtained by cardiac puncture and 475 µl was rapidly mixed with 25 µl (50 µM final concentration) of AMP. This mixture was fed to 100 nulliparous 3–5 day old female An. stephensi. A further 475 µl of blood from the same infection was mixed with 25 µl of distilled water to act as a control. Mosquitoes were maintained at 19°C for optimum parasite development. Between 30 and 50 mosquitoes were dissected after 10 days. Mosquito wing length, numbers of retained eggs and oocysts were recorded in triplicate experiments carried out on different mosquito cohorts.

Data set [6] relates to Anopheles gambiae Sua 4.0 cells. The experiment in a line: Sua 4.0 mosquito cell viability (erythrosin B exclusion). The class given is cell-based. Further details: dose or concentration left out as unconfirmed. The conditions noted are these: after 48 h culture; erythrosin B exclusion, 100 cells in triplicate wells. How it is done:
(§2) To establish potential effects of AMPs on mosquito cells, the An. gambiae Sua 4.0 cell line was used. This facilitated an initial high-throughput screening and provided insights into AMP toxicity, mode of action (lytic or other) and speed of action. Sua 4.0 cells were maintained at 27°C in Schneider's insect medium supplemented with 10% FBS (foetal bovine serum) in T25 culture flasks (Fisher, UK).
(§3) Each AMP was tested separately to establish if it affected cell viability and growth. […] Cells were maintained for 3, 6, 24 or 48 h, after which they were resuspended and a sub-sample from duplicate wells counted using a haemocytometer. To establish cell viability after 48 h (whether simply arrested in development or non-viable), resuspended cells were added to an equal volume of 5% erythrosin B vital dye and viable cells excluding the stain were counted. The viability of 100 cells in triplicate wells was recorded. Each AMP assay was performed in triplicate and included a negative control minus the peptide (5 µl of water alone added to the medium) and a further control of 5 µl of 10% SDS (sodium dodecyl sulphate) substituted for the AMP as this causes 100% cell lysis.

For data set [7] the test system is unchanged. Description: Sua 4.0 mosquito cell growth (cell counts). Type of data set: cell-based. The conditions noted are these: 25 µM AMP; for Average number of cells over 3 replicates, peptide: seeded 30×10^4/ml, mean of 3 experiments. How it is done:
as §2, §3

Setting [8] is: Replicate 1, dissected after 8 days.
Where [9] appears, read: 50 µM of single peptide, n = 150 ookinetes per treatment per replicate.
The mark [10] stands for this setting: over the three replicates, 50 µM.

Take Mastoparan X: the “Oocyst intensity (mean number of oocysts per gut, range in parentheses), peptide” value with P. falciparum [1] (Replicate 1) is recorded as 2 (0–11); with P. falciparum [1] (Replicate 2), 2 (0–29); in the data set on P. falciparum [1] (Replicate 3), 11 (0–72); with P. falciparum [5] (field parasites and mosquitoes), 3 (0–21). Moreover, the “Oocyst prevalence (oocyst positive mosquitoes), peptide” value is 47% (30) in the data set with P. falciparum [1] (setting [8]); 40% (30) in the data set on P. falciparum [1] (Replicate 2); 60% (30) in the data set with P. falciparum [1] (Replicate 3); 45% (40) in the data set on P. falciparum [5] (blood of gametocyte carriers, progeny of field An. gambiae). The results for the “Average ookinete viability (3 reps), peptide” value in the data set with P. berghei ookinetes (setting [9]) and in the data set with P. berghei ookinetes (100 µM of single peptide) were 41% and 4%, respectively. In addition, the “Reduction in ookinete viability” value in the data set on P. berghei ookinetes (50 µM of single peptide) came out at 57%; in the data set on P. berghei ookinetes (100 µM of single peptide) it was 96%. Further, the “Effect on longevity over 30 days (in words)” value in data set [2] was “no significant long-term effects on longevity”. Further, the “Significance of effect on oviposition” value in data set [3] was “N/S”. The “Mean no. of eggs laid per mosquito, peptide” value in [3] worked out at 44. In addition, the “Significance of effect on longevity over 10 days” value in data set [4] is “N/S”. For the same substance, the “Percent alive, peptide” value in data set [4] is 84%.

As to Melittin, the “Oocyst intensity (mean number of oocysts per gut, range in parentheses), peptide” value in the data set on P. falciparum [1] (Replicate 1) is reported as 0; in the data set on P. falciparum [1] (Replicate 2), <1 (0–1); in the data set on P. falciparum [1] (Replicate 3), 6 (0–74). For the same substance, the “Oocyst prevalence (oocyst positive mosquitoes), peptide” value in the data set with P. falciparum [1] (setting [8]) was 0% (30); with P. falciparum [1] (Replicate 2) it was 17% (30); in the data set with P. falciparum [1] (Replicate 3), 37% (30). Further, the “Average reduction of intensity of infection” value in the data set with P. falciparum [1] (over three replicates) was determined as 57%. For the same substance, the “Average reduction of prevalence” value in the data set on P. falciparum [1] (over three replicates) is given as 60%. Moreover, the “Prevalence (proportion of infected mosquitoes), peptide” value was 98% (50) with P. berghei (Replicate 1), 82% (49) in the data set on P. berghei (Replicate 2) and 72% (50) with P. berghei (Replicate 3). Besides, the “Intensity (mean number of oocysts, range in parentheses), peptide” value with P. berghei (Replicate 1) is given as 50 (0–192); in the data set with P. berghei (Replicate 2), 28 (0–160); in the data set with P. berghei (Replicate 3), 31 (0–412). Also, in the data set on P. berghei (setting [10]), the “Average reduction of parasite prevalence” value is 10%. Besides, the “Mean oocysts per midgut” value with P. berghei (setting [10]) is given as 37 oocysts per midgut. Moreover, in the data set on P. berghei (over the three replicates, 50 µM, control mean 114 oocysts), the “Reduction of infection intensity” value is on record as 68%. Also, the “Average ookinete viability (3 reps), peptide” value with P. berghei ookinetes (setting [9]) was 0%. Also, the “Reduction in ookinete viability” value in the data set on P. berghei ookinetes (50 µM of single peptide) came out at 100%. In [6], the “Average viability of cells (3 replicates), peptide” value is given as “no intact cells remained; also recorded: No remaining cells”. In addition, the “Significance of effect on oviposition” value in data set [3] is “N/S”. For the same substance, in data set [3], the “Mean no. of eggs laid per mosquito, peptide” value stood at 41. For the same substance, the “Significance of effect on longevity over 10 days” value in data set [4] was “N/S”. Besides, in data set [4], the “Percent alive, peptide” value is 84%. Moreover, the “Reduction in cell number (compared to control)” value in data set [7] (3 hrs in culture) was 84%; in [7] (24 hrs in culture), 100%; in [7] (48 hrs in culture), 100%. The “Average number of cells over 3 replicates, peptide” value in data set [7] (3 hrs in culture, haemocytometer count of duplicate wells) was 50000 mL⁻¹; in [7] (24 hrs in culture), “no cells remaining and 0 ×10^4/ml”; in data set [7] (48 hrs in culture) it was 0 mL⁻¹.
